Like-named read-outs stand apart in the source and are kept apart here. Where no end group is shown, it is not given here.
Experiments:
[1] = Relative hydrophobicity as RP-HPLC retention time; assay type: physicochemical; details: chromatographic, Phenomenex Luna C18 4 μm 150 × 4.6 mm, linear AB gradient 1% acetonitrile/min, 0.3 mL/min, A water 0.1% TFA, B acetonitrile 0.1% TFA, 25 °C
Method: The purity analysis of the peptides was conducted on a RP-HPLC system (Shimadzu; LC-20ADXR) by using a Phenomenex (Luna) analytical C18 column (4 μm, 150 × 4.6 mm). The mass of the purified peptides was determined in the positive-ion mode using Q-TOF LC/MS (Compass Hystar 4.1, Bruker, USA). The purity (>95%) and mass data of all the synthesized peptides are provided in the Supporting Information.
8. Comparative Hydrophobicity analysis
The purity of all synthesized peptides was determined using reverse phase analytical HPLC
(Shimadzu; LC-20ADXR). Below mentioned are the conditions used to conduct the purity
Column: Phenomenex (Luna), 4 um, C18, 150 × 4.6 mm
Mobile Phase: Buffer A-Water containing 0.1% TFA,
Buffer B-Acetonitrile containing 0.1% TFA
Figure S52. HPLC chromatogram of 6a.
(1 picture or pasted object on this page, not shown here)

S. aureus (ATCC 29213) = assay: MIC, standard microtiter dilution (CLSI); assay type: cell-based; details: broth microdilution (CLSI), CAMHB, 37 °C, 24 h
Summary of the method: (§1)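 Broth microdilution per CLSI: overnight cultures diluted in cation-adjusted Mueller Hinton Broth to 10^6 CFU/mL, mixed with 2-fold serial peptide dilutions, incubated 37 °C for 24 h. MIC = lowest peptide concentration inhibiting growth. Three independent assays in triplicate.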

[2] = test system: P. aeruginosa (ATCC 27883); assay: MIC, standard microtiter dilution (CLSI); assay type: cell-based, Pseudomonas aeruginosa; details: broth microdilution (CLSI), CAMHB, 37 °C, 24 h
Summary of the method: as §1

[3] = CD spectroscopy, helicity; assay type: physicochemical; parameters: key to Δ[θ]222 induced by TFE / Δ[θ]222 induced by Liposomes: mean residue molar ellipticity, mdeg cm2/(dmol × res); details: for [θ]222 mean residue molar ellipticity, TFE / [θ]222 mean residue molar ellipticity, Liposomes / [θ]222 mean residue molar ellipticity, PBS: CD at 222 nm, 25 °C; for [θ]222 mean residue molar ellipticity, TFE: aqueous buffer containing 50% TFE; for [θ]222 mean residue molar ellipticity, Liposomes / Δ[θ]222 induced by Liposomes: bacterial membrane mimicking liposomes; for [θ]222 mean residue molar ellipticity, Liposomes: peptide:lipid molar ratio 1:1.05; for [θ]222 mean residue molar ellipticity, PBS: phosphate buffer saline pH 7.0; for Δ[θ]222 induced by TFE / Δ[θ]222 induced by Liposomes: difference to PBS; for Δ[θ]222 induced by TFE: 50% TFE; for % of helicity induced by TFE: increase in molar ellipticity at 222 nm in the presence of 50% TFE; for % of helicity induced by Liposomes: increase in molar ellipticity at 222 nm in the presence of liposomes;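 as to % of helicity induced by Liposomes: share of the total helicity with liposomes gained over the same peptide in PBS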;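 as to % of helicity induced by TFE: share of the total helicity in TFE gained over the same peptide in PBS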
Method: The CD spectra of peptides were recorded using a Jasco J-1500 CD spectrophotometer (Jasco, Easton, MD) at 25 °C with a 1 mm path length cell. Wavelengths from 190 to 260 nm were scanned with 1.0 nm step resolution, 100 nm/min speed, 0.4 s response time, and 1 nm bandwidth. CD spectra of the peptides were collected and averaged over three scans in 10 mM sodium phosphate buffer (pH 7.2), helix-inducing solvent 50% TFE (v/v), and bacterial mimic liposomes (75 μM lipid). Spectra were corrected by subtracting a baseline spectrum containing only buffer or 50% TFE or liposomes. The mean residue molar ellipticity was calculated using the formula [drawing 3] where Ab222 is the absorbance observed at 222 nm, MRW is the mean residue molecular weight, C is the concentration in mg/mL, and L is the path length.
Table S1. RP-HPLC retention times and CD spectroscopy analysis of the selected peptides Peptide tR (min)a [θ]222b Δ[θ]222 induced by % of helicity inducedc by PBS TFE Liposomes TFE Liposomes TFE Liposomes […]
atR (min) denotes the retention time at 25°C by RP-HPLC. bThe mean residue molar ellipticity [θ] 222 (mdeg cm2/(dmol × res)) at 222 nm was measured at 25 °C in phosphate buffer saline (PBS, pH 7.0), in aqueous buﬀer containing 50% TFE (TFE), or in presence of bacterial membrane mimicking liposomes (peptide:lipid […]
c% helix induced is the increase in the molar ellipticity at 222 nm (in percentage) of a peptide in the presence of TFE or liposomes.

E. coli (ATCC 25922) = details: broth microdilution (CLSI), CAMHB, 37 °C, 24 h
Summary of the method: as §1

MRSA (ATCC BAA-1556) = details: broth microdilution (CLSI), CAMHB, 37 °C, 24 h
Summary of the method: as §1

[4] = test system: human red blood cells (hRBCs); assay: Hemolytic assay; assay type: cell-based; details: 2 h, 37 °C
Summary of the method: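 Percent hemolysis uses PBS as 0% and 1% Triton X-100 as 100% references, from supernatant absorbance at 567 nm. Red cells (4% in PBS, equal volume) exposed 2 h at 37 °C without agitation to 2-fold serially diluted peptide.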

[5] = test system: K. pneumoniae (ATCCBAA-1705); assay: MIC, standard microtiter dilution (CLSI); assay type: cell-based, Klebsiella pneumoniae; details: broth microdilution (CLSI), CAMHB, 37 °C, 24 h
Summary of the method: as §1

[6] = 10^6 CFU/mL, highest MIC of three independent experiments in triplicate
[7] = hRBC suspension 4% in PBS, hemoglobin release at 567 nm, 1% Triton X-100 = 100%
[8] = value in parentheses (μM), hRBC 4% in PBS, 567 nm

Row | Substance | tR, RP-HPLC retention time (measure of overall hydrophobicity) [1] | MIC, S. aureus (ATCC 29213) (S. aureus (ATCC 29213); [6]) | MIC, S. aureus (ATCC 29213) (S. aureus (ATCC 29213); value in parentheses (μM)) | MIC, P. aeruginosa (ATCC 27883) [2, 6] | MIC, P. aeruginosa (ATCC 27883) ([2]; value in parentheses (μM)) | [θ]222 mean residue molar ellipticity, TFE [3] | [θ]222 mean residue molar ellipticity, Liposomes [3] | [θ]222 mean residue molar ellipticity, PBS [3] | Δ[θ]222 induced by TFE [3] | Δ[θ]222 induced by Liposomes [3] | % of helicity induced by TFE [3] | % of helicity induced by Liposomes [3] | MIC, E. coli (ATCC 25922) (E. coli (ATCC 25922); [6]) | MIC, E. coli (ATCC 25922) (E. coli (ATCC 25922); value in parentheses (μM)) | MIC, MRSA (ATCC BAA-1556) (MRSA (ATCC BAA-1556); [6]) | MIC, MRSA (ATCC BAA-1556) (MRSA (ATCC BAA-1556); value in parentheses (μM)) | HC50 (concentration at which 50% hemolysis was observed) [4, 7] | HC50 (concentration at which 50% hemolysis was observed) [4, 8] | MIC, K. pneumoniae (ATCCBAA-1705) [5, 6] | MIC, K. pneumoniae (ATCCBAA-1705) ([5]; value in parentheses (μM))
1 | KWAKKWAKWWKK-NH2 [6b] | 28.98 min | 100 µg/mL | 59.77 µM | > 100 µg/mL | > 59.77 µM | -14689 mdeg cm2/(dmol × res) | -20391 mdeg cm2/(dmol × res) | -7476 mdeg cm2/(dmol × res) | -7212 | -12915 | 49.10% | 63.33% | > 100 µg/mL | > 59.77 µM | 100 µg/mL | 59.77 µM | > 500 µg/mL | > 298.85 µM | > 100 µg/mL | > 59.77 µM
2 | KWAKKWWKWWKK-NH2 [6e] | 29.87 min | 12.5 µg/mL | 6.99 µM | 25 µg/mL | 13.98 µM | -18419 mdeg cm2/(dmol × res) | -13181 mdeg cm2/(dmol × res) | -7968 mdeg cm2/(dmol × res) | -10451 | -5213 | 56.74% | 39.55% | 25 µg/mL | 13.98 µM | 12.5 µg/mL | 6.99 µM | 360 µg/mL | 201.32 µM | 50 µg/mL | 27.96 µM
3 | Ac-KWIKKWIKWWKK-NH2 [7d] | 38.75 min | 6.2 µg/mL | 3.45 µM | 12.5 µg/mL | 6.95 µM | -11272 mdeg cm2/(dmol × res) | -19755 mdeg cm2/(dmol × res) | -3826 mdeg cm2/(dmol × res) | -7446 | -15929 | 66.05% | 80.63% | 12.5 µg/mL | 6.95 µM | 6.2 µg/mL | 3.45 µM | 160 µg/mL | 88.92 µM | 25 µg/mL | 13.89 µM
4 | Ac-KWLKKWLKWWKK-NH2 [8d] | 39.25 min | 3.1 µg/mL | 1.72 µM | 6.2 µg/mL | 3.45 µM | -16759 mdeg cm2/(dmol × res) | -24786 mdeg cm2/(dmol × res) | -10222 mdeg cm2/(dmol × res) | -6537 | -14564 | 39.00% | 58.75% | 6.2 µg/mL | 3.45 µM | 6.2 µg/mL | 3.45 µM | 145 µg/mL | 80.59 µM | 12.5 µg/mL | 6.95 µM
5 | Ac-RWLRRWLRWWRR-NH2 [8c] | 41.20 min | 6.2 µg/mL | 3.15 µM | 12.5 µg/mL | 6.35 µM | -13735 mdeg cm2/(dmol × res) | -19930 mdeg cm2/(dmol × res) | -8173 mdeg cm2/(dmol × res) | -5562 | -11757 | 40.49% | 58.99% | 12.5 µg/mL | 6.35 µM | 6.2 µg/mL | 3.15 µM | 30 µg/mL | 15.25 µM | 12.5 µg/mL | 6.35 µM
